Experimental data published in paper PMC10247784, “Physiological activation of human and mouse bitter taste receptors by bile acids” (Communications Biology, 2023).
“And” between values parts separate entries of the source, which are not always exact repeats. Equal values may be shown once.

Biological target: T1, human TAS2R14 (Homo sapiens, UniProt Q9NYV8)
T1 construct: expressed in transfected cells; host or cells: HEK293T-Gα16gust44
T1 sequence (Q9NYV8 1-317): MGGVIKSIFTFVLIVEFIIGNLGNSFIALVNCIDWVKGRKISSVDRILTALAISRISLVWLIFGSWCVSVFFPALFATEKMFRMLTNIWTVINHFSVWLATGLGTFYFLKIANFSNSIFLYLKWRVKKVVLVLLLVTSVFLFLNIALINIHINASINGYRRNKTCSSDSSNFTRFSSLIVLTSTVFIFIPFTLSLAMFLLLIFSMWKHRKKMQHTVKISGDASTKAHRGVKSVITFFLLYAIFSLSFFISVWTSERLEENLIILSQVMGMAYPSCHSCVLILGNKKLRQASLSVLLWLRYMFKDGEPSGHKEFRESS
Assay: Calcium imaging assay (FLIPR), HEK293T-Gα16gust44 cells transfected with human TAS2R14
Assay type: cell-based
Conditions: for RLU: TAS2R14 trace
Procedure: This set of bile acids was chosen because of their commercial availability in high purities, their diversity within the class of bile acids and their previous detection and quantitation in human blood. Stock solutions were prepared in DMSO.
As basal growth medium for the HEK293T-Gα16gust44 cell line[17],[59] served Dulbecco’s modified eagle medium (DMEM) (Thermo Fisher Scientific, Darmstadt, Germany) supplemented with 10 % fetal bovine serum (Sigma-Aldrich, Steinheim, Germany), 2 mM L-glutamine (Sigma-Aldrich, Steinheim, Germany), 100 units/ml penicillin (Sigma Aldrich, Steinheim, Germany) and 100 µg/ml streptomycin (Sigma Aldrich, Steinheim, Germany). Growth conditions were 37 °C, 5 % CO2 and saturated air-humidity[60].
HEK293T-Gα16gust44 cells were seeded on poly-D-lysine (10 µg/ml) coated 96-well plates to reach a confluence of 40-60 % the next day. For transient transfection 150 ng of plasmid DNA containing the receptor of interest and 0.3 µl lipofectamine 2000 (Thermo Fisher Scientific, Darmstadt, Germany) per well were used and transfection took place according to the manual of lipofectamine 2000. […] The empty vector DNA (mock) was transfected as negative control[14],[41].
Cells were loaded using the calcium-sensitive fluorescent dye Fluo-4-AM (Abcam, Cambridge, Great Britain) in the presence of 2.5 mM probenecid (Sigma-Aldrich, Steinheim, Germany) the day after transfection[13],[41]. 1 h after loading, cells were washed with C1 buffer using a BioTek Cell Washer, incubated in the dark for half an hour and washed again. For automated agonist application and measurement of fluorescence changes, a FLIPR^TETRA device (Molecular Devices, San José, United States) was used. Viability of cells was tested by application of 100 nM Somatostatin 14 (Bachem, Bubendorf, Switzerland)[42].
Measured data were negative control corrected by subtracting the signal of the mock-transfected cells and exported to Microsoft Excel using the FLIPR software ScreenWorks 4.2. In Microsoft Excel software, standardization of maximum fluorescence intensities to the basal fluorescence and normalization to the buffer-only control was done to calculate the relative fluorescence changes (ΔF/F).
Initial screening experiments performed in duplicate wells were confirmed by at least one replication and representative traces were selected for display. All dose-response relationships were determined by three independent experiments (biological replicates) performed in duplicates (technical replicates). Threshold concentrations, defined as lowest substance concentrations leading to statistically significant elevated fluorescence changes in receptor-transfected cells compared with empty vector-transfected cells, were determined using SigmaPlot with Student’s t-test to evaluate statistical significance (p < 0.01).

## C[C@H](CCC(=O)O)[C@H]1CC[C@H]2[C@@H]3[C@H](O)C[C@@H]4C[C@H](O)CC[C@]4(C)[C@H]3CC[C@]12C [Chenodeoxycholic Acid, chenodeoxycholic acid]
TAS2R14, bile acids, mean
  Efficacy = maximal amplitude (ΔF/F): 0.05441
TAS2R14, bile acids, single replicates, listed as CDCA
  Efficacy (maximal amplitude ΔF/F), individual data points: 0.0148 and 0.07816 and 0.07028
TAS2R14, conc. 0,01 mM
  Δ F/F: 0.006116
TAS2R14, conc. 0,03 mM
  Δ F/F: 0.05441
TAS2R14, conc. 0,00003 mM
  Δ F/F: -0.01882
TAS2R14, conc. 0,0001 mM
  Δ F/F: -0.01861
TAS2R14, conc. 0,0003 mM
  Δ F/F: -0.02118
TAS2R14, conc. 0,001 mM
  Δ F/F: -0.02299
TAS2R14, conc. 0,003 mM
  Δ F/F: -0.02084
Time (s) 0
  RLU: 0 RLU
Time (s) 2 (Taurocholic Acid 2.016)
  RLU: -49.1645 RLU
Time (s) 4 (Taurocholic Acid 4.016)
  RLU: -25.5098 RLU
Time (s) 6 (Taurocholic Acid 6.016)
  RLU: -14.6279 RLU
Time (s) 8 (Taurocholic Acid 8.016)
  RLU: -24.697 RLU
Time (s) 12 (Taurocholic Acid 12.016)
  RLU: -44.0879 RLU
Time (s) 14 (Taurocholic Acid 14.016)
  RLU: -37.1122 RLU
Time (s) 16 (Taurocholic Acid 16.016)
  RLU: -43.9695 RLU
Time (s) 18 (Taurocholic Acid 18.016)
  RLU: -32.8497 RLU
Time (s) 18.797 (Chenodeoxycholic Acid 18.765)
  RLU: 7.956 RLU
Time (s) 20.797 (Chenodeoxycholic Acid 20.781)
  RLU: 109.495 RLU
Time (s) 22.797 (Chenodeoxycholic Acid 22.781)
  RLU: 144.429 RLU
Time (s) 24.797 (Chenodeoxycholic Acid 24.781)
  RLU: 188.481 RLU
Time (s) 26.797 (Chenodeoxycholic Acid 26.781)
  RLU: 194.457 RLU
Time (s) 28.797 (Chenodeoxycholic Acid 28.781)
  RLU: 226.874 RLU
Time (s) 30.797 (Chenodeoxycholic Acid 30.781)
  RLU: 234.892 RLU
Time (s) 32.797 (Chenodeoxycholic Acid 32.781)
  RLU: 237.826 RLU
Time (s) 34.797 (Chenodeoxycholic Acid 34.781)
  RLU: 263.919 RLU
Time (s) 36.797 (Chenodeoxycholic Acid 36.781)
  RLU: 289.916 RLU
Time (s) 38.797 (Chenodeoxycholic Acid 38.781)
  RLU: 280.38 RLU
Time (s) 40.797 (Chenodeoxycholic Acid 40.781)
  RLU: 364.7 RLU
Time (s) 42.797 (Chenodeoxycholic Acid 42.781)
  RLU: 389.665 RLU
Time (s) 44.797 (Chenodeoxycholic Acid 44.781)
  RLU: 409.588 RLU
Time (s) 46.797 (Chenodeoxycholic Acid 46.781)
  RLU: 412.285 RLU
Time (s) 48.797 (Chenodeoxycholic Acid 48.781)
  RLU: 462.382 RLU
Time (s) 50.797 (Chenodeoxycholic Acid 50.781)
  RLU: 489.05 RLU
Time (s) 52.797 (Chenodeoxycholic Acid 52.781)
  RLU: 480.824 RLU
Time (s) 54.797 (Chenodeoxycholic Acid 54.781)
  RLU: 484 RLU
Time (s) 56.797 (Chenodeoxycholic Acid 56.781)
  RLU: 514.521 RLU
Time (s) 58.797 (Chenodeoxycholic Acid 58.781)
  RLU: 561.552 RLU
Time (s) 60.797 (Chenodeoxycholic Acid 60.781)
  RLU: 547.999 RLU
Time (s) 62.797 (Chenodeoxycholic Acid 62.781)
  RLU: 553.072 RLU
Time (s) 64.797 (Chenodeoxycholic Acid 64.781)
  RLU: 596.368 RLU
Time (s) 66.797 (Chenodeoxycholic Acid 66.781)
  RLU: 582.133 RLU
Time (s) 68.797 (Chenodeoxycholic Acid 68.781)
  RLU: 591.364 RLU
Time (s) 70.797 (Chenodeoxycholic Acid 70.781)
  RLU: 612.747 RLU
Time (s) 72.797 (Chenodeoxycholic Acid 72.781)
  RLU: 626.948 RLU
Time (s) 74.797 (Chenodeoxycholic Acid 74.781)
  RLU: 600.862 RLU
Time (s) 76.797 (Chenodeoxycholic Acid 76.781)
  RLU: 644.716 RLU
Time (s) 78.797 (Chenodeoxycholic Acid 78.781)
  RLU: 648.451 RLU
Time (s) 80.797 (Chenodeoxycholic Acid 80.781)
  RLU: 604.524 RLU
Time (s) 82.797 (Chenodeoxycholic Acid 82.781)
  RLU: 653.18 RLU
Time (s) 84.797 (Chenodeoxycholic Acid 84.781)
  RLU: 678.438 RLU
Time (s) 86.797 (Chenodeoxycholic Acid 86.781)
  RLU: 660.126 RLU
Time (s) 88.797 (Chenodeoxycholic Acid 88.781)
  RLU: 638.796 RLU
Time (s) 90.797 (Chenodeoxycholic Acid 90.781)
  RLU: 637.499 RLU
Time (s) 92.797 (Chenodeoxycholic Acid 92.781)
  RLU: 628.913 RLU
Time (s) 94.797 (Chenodeoxycholic Acid 94.781)
  RLU: 638.53 RLU
Time (s) 96.797 (Chenodeoxycholic Acid 96.781)
  RLU: 632.564 RLU
Time (s) 98.797 (Chenodeoxycholic Acid 98.781)
  RLU: 628.21 RLU
Time (s) 100.797 (Chenodeoxycholic Acid 100.781)
  RLU: 613.502 RLU
Time (s) 102.797 (Chenodeoxycholic Acid 102.781)
  RLU: 604.41 RLU
Time (s) 104.797 (Chenodeoxycholic Acid 104.781)
  RLU: 599.892 RLU
Time (s) 106.797 (Chenodeoxycholic Acid 106.781)
  RLU: 563.223 RLU
Time (s) 108.797 (Chenodeoxycholic Acid 108.781)
  RLU: 594.081 RLU
Time (s) 110.797 (Chenodeoxycholic Acid 110.781)
  RLU: 586.278 RLU
Time (s) 112.797 (Chenodeoxycholic Acid 112.781)
  RLU: 550.791 RLU
Time (s) 114.797 (Chenodeoxycholic Acid 114.781)
  RLU: 544.911 RLU
Time (s) 116.797 (Chenodeoxycholic Acid 116.781)
  RLU: 535.277 RLU
Time (s) 118.797 (Chenodeoxycholic Acid 118.781)
  RLU: 521.394 RLU
Time (s) 120.797 (Chenodeoxycholic Acid 120.781)
  RLU: 516.9 RLU
Time (s) 122.797 (Chenodeoxycholic Acid 122.781)
  RLU: 506.351 RLU
Time (s) 124.797 (Chenodeoxycholic Acid 124.781)
  RLU: 491.947 RLU
Time (s) 126.797 (Chenodeoxycholic Acid 126.781)
  RLU: 464.952 RLU
Time (s) 128.797 (Chenodeoxycholic Acid 128.781)
  RLU: 465.396 RLU
Time (s) 130.797 (Chenodeoxycholic Acid 130.781)
  RLU: 467.418 RLU
Time (s) 132.797 (Chenodeoxycholic Acid 132.781)
  RLU: 469.949 RLU
Time (s) 134.797 (Chenodeoxycholic Acid 134.781)
  RLU: 415.628 RLU
Time (s) 136.797 (Chenodeoxycholic Acid 136.781)
  RLU: 432.183 RLU
Time (s) 137.562 (Taurocholic Acid 137.563, Chenodeoxycholic Acid 137.546)
  RLU: 452.404 RLU
Time (s) 143.578 (Taurocholic Acid 143.563, Chenodeoxycholic Acid 143.546)
  RLU: 380.071 RLU
Time (s) 149.578 (Taurocholic Acid 149.563, Chenodeoxycholic Acid 149.546)
  RLU: 382.743 RLU
Time (s) 155.578 (Taurocholic Acid 155.563, Chenodeoxycholic Acid 155.546)
  RLU: 336.968 RLU
Time (s) 161.578 (Taurocholic Acid 161.563, Chenodeoxycholic Acid 161.546)
  RLU: 359.379 RLU
Time (s) 167.578 (Taurocholic Acid 167.563, Chenodeoxycholic Acid 167.546)
  RLU: 343.975 RLU
Time (s) 173.578 (Taurocholic Acid 173.563, Chenodeoxycholic Acid 173.546)
  RLU: 278.705 RLU
Time (s) 179.578 (Taurocholic Acid 179.563, Chenodeoxycholic Acid 179.546)
  RLU: 300.666 RLU
Time (s) 191.578 (Taurocholic Acid 191.563, Chenodeoxycholic Acid 191.546)
  RLU: 185.369 RLU
Time (s) 197.578 (Taurocholic Acid 197.563, Chenodeoxycholic Acid 197.546)
  RLU: 161.87 RLU
Time (s) 209.578 (Taurocholic Acid 209.563, Chenodeoxycholic Acid 209.546)
  RLU: 179.275 RLU
Time (s) 221.578 (Taurocholic Acid 221.563, Chenodeoxycholic Acid 221.546)
  RLU: 182.465 RLU
Time (s) 233.578 (Taurocholic Acid 233.563, Chenodeoxycholic Acid 233.546)
  RLU: 198.132 RLU
Time (s) 239.578 (Taurocholic Acid 239.563, Chenodeoxycholic Acid 239.546)
  RLU: 183.585 RLU
Time (s) 245.578 (Taurocholic Acid 245.563, Chenodeoxycholic Acid 245.546)
  RLU: 212.748 RLU
Time (s) 293.578 (Taurocholic Acid 293.563, Chenodeoxycholic Acid 293.546)
  RLU: 209.963 RLU
Time (s) 299.578 (Taurocholic Acid 299.563, Chenodeoxycholic Acid 299.546)
  RLU: 216.371 RLU
Time (s) 305.578 (Taurocholic Acid 305.563, Chenodeoxycholic Acid 305.546)
  RLU: 208.994 RLU
Time (s) 311.578 (Taurocholic Acid 311.563, Chenodeoxycholic Acid 311.546)
  RLU: 184.812 RLU
Time (s) 317.578 (Taurocholic Acid 317.563, Chenodeoxycholic Acid 317.546)
  RLU: 189.014 RLU
Time (s) 323.578 (Taurocholic Acid 323.563, Chenodeoxycholic Acid 323.546)
  RLU: 182.748 RLU
Time (s) 329.578 (Taurocholic Acid 329.563, Chenodeoxycholic Acid 329.546)
  RLU: 195.394 RLU
Time (s) 335.578 (Taurocholic Acid 335.563, Chenodeoxycholic Acid 335.546)
  RLU: 190.135 RLU
Time (s) 341.578 (Taurocholic Acid 341.563, Chenodeoxycholic Acid 341.546)
  RLU: 187.029 RLU
Time (s) 347.578 (Taurocholic Acid 347.563, Chenodeoxycholic Acid 347.546)
  RLU: 164.841 RLU
Time (s) 353.578 (Taurocholic Acid 353.563, Chenodeoxycholic Acid 353.546)
  RLU: 198.762 RLU
Time (s) 359.578 (Taurocholic Acid 359.563, Chenodeoxycholic Acid 359.546)
  RLU: 181.785 RLU
Lowest concentration with significantly increased fluorescence vs empty vector (p < 0.01)
  Activation threshold concentration TAS2R14: 30 µM
screening
  Receptor response TAS2R14: activated
